{
  "source": "patent EP2999467B1",
  "about": "“USE OF A COMBINATION OF TWO COMPOUNDS FOR THE TREATMENT AND/OR PREVENTION OF BONE DISORDERS” (Institut National de la Recherche Agronomique (INRA), priority 2013, dated 2014)",
  "test_system": "RAW264.7",
  "assay": "TRAP staining: RANKL-induced osteoclast differentiation, count of multinucleated TRAP+ cells",
  "format": "cell-based",
  "text": "Les préostéoblastes primaires ont été isolés à partir de la calotte crânienne de rats Wistar nouveaux-nés par digestion enzymatique comme précédemment décrit [Declercq, H., Van den Vreken, N., De Maeyer, E., Verbeeck, R., Schacht, E., De Ridder, L., and Cornelissen, M. (2004). Isolation, proliferation and differentiation of osteoblastic cells to study cell/biomaterial interactions: comparison of different isolation techniques and source. Biomaterials 25, 757-68.]. Les précurseurs d'ostéoclastes RAW264.7 ont été obtenus auprès de l'ATCC (Manassas, VA, USA). Les préostéoblastes et les RAW264.7 ont été cultivés dans du milieu α-MEM (Invitrogen, Carlsbad, CA, USA) supplémenté avec 10% de SVF décomplémenté et de 100 unités/ml de pénicilline-streptomycine.\nPour la coloration TRAP, 60.000 cellules RAW264.7 ont été ensemencées dans des puits de plaques 12 puits pendant 12 heures puis traitées avec du DMSO/éthanol comme témoin ou de la fisétine (5 µM dans le DMSO) ou du DHA (50µM dans l'éthanol) ou la combinaison des deux (Fisétine 5 µM et DHA 50 µM) pendant 3 heures. Les cellules ont ensuite été induites à se différencier en présence de RANKL (50 ng/ml) avec du DMSO/éthanol ou de la fisétine (5 µM) ou du DHA (50 µM) ou la combinaison des deux (Fisétine 5 µM et DHA 50 µM) durant 4 jours avec un changement de milieux après 2 jours. De la BSA délipidée et sans endotoxines a été utilisée pour solubiliser le DHA avec un rapport 1/5 (BSA/DHA).\nLa coloration TRAP a été réalisée en utilisant le kit « leukocyte acid phosphatase » (Sigma-Aldrich) selon les recommandations du fournisseur après fixation des cellules. Les cellules TRAP+ multinucléées ont ensuite été comptées.",
  "data": [
    {"molecule": "CC/C=C\\C/C=C\\C/C=C\\C/C=C\\C/C=C\\C/C=C\\CCC(=O)O", "note": "[DHA, acide docosahexaénoïque]", "values": [
      {"measurement": "inhibition at 50 µM", "setting": "Mus musculus, RAW264.7, 96 h, DHA 50µM, RANKL 50 ng/ml, 4 days, vs RANKL condition, read-out: inhibition de l'induction par RANKL de la formation de cellules multinucléées TRAP+ (ostéoclastes)", "result": 23, "unit": "%"},
      {"measurement": "ostéoclastes/cm^2", "setting": "condition RANKL+DHA (50µM), RANKL alone 735+/-251", "result": "564+/-259 ostéoclastes/cm^2"}
    ]}
  ]
}
